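Five concentrations, 48 hours, 96-well plates. Abbreviation: GI50, concentration required for 50% inhibition of growth. Definition used: TGI = concentration required for complete inhibition of growth.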

The first assay concerns HCT-116 colon. As to the kind of experiment: NCI anticancer screen, dose series, 48 h.
With `COc1ccc(-c2nc3sc4c(c3c(=O)[nH]2)CCCCCC4)cc1`, the GI50 is 1.39 µM and the TGI was over 33.2 µM.
`O=C1CC(c2ccc(O)cc2)C2(O1)C(=O)OC(C(O)CO)C2O` (centres undefined) came in with a TGI of over 100 µM.
Same read-out and setting: the result for `CC1SC2=NC3=C(c4ccccc4C3=O)C(c3ccc(F)cc3)N2C1=O` (centres undefined) reads over 100 µM; that for `CC1C=C(OC(=O)c2ccccc2)C(=O)C(n2cc(F)c(=O)[nH]c2=O)O1` (centres undefined), over 100 µM.
With `COc1ccc(-c2ccc(/C=N/n3c(COc4ccc(Cl)cc4Cl)nn(CN4CCOCC4)c3=S)o2)c([N+](=O)[O-])c1`, the GI50 was 16.5 µM and the TGI worked out at 30.1 µM.
For the molecule `OC(c1cc(-c2ccccc2)nc2ccc(Cl)cc12)C1CCCCN1` (centres undefined), the GI50 is 1.76 µM and the TGI was 3.21 µM.
The matching figures for `COc1ccc(OC)c(/C=C2\SC(=S)NC2=O)c1`: 29.9 µM and over 100 µM.
In turn, `CCN(CC)c1ccc(C(=O)c2ccccc2C(=O)O)c(O)c1` came in with a TGI of over 100 µM.
Take `CC(CCC(=O)O)[C@H]1CCC2[C@@H]3CC[C@@H]4CC(O)CC[C@]4(C)C3CC[C@@]21C` (some centres undefined): the GI50 is 30.4 µM and the TGI is over 100 µM.
In turn, `Nc1ccn(CCNCCn2cnc3nc(N)[nH]c(=O)c32)c(=O)n1` registered a TGI of over 100 µM.

For a further assay, the system named is LOX IMVI melanoma. As to the kind of experiment: NCI anticancer screen, dose series, 48 h.
Consider `CCCC(C)c1cc(Cc2cc(Cl)cc(Cl)c2O)c(O)c(Cc2cc(Cl)cc(Cl)c2O)c1` (centres undefined), for which the GI50 is 2.44 µM and the TGI came out at 8.89 µM.
`C/C(=N\NS(=O)(=O)c1ccccc1)c1ccc(Cl)c(Cl)c1` returned a TGI of over 100 µM.
As to `COc1ccc(-c2nn3c(-c4cc(F)c(Cl)cc4Cl)nnc3s2)cc1`, the GI50 was 26.4 µM and the TGI was over 100 µM.
In turn, `CCCNC1=C(C(=O)OCC)C(=O)CO1` showed a TGI of over 100 µM.
The same measure, in the same setting: the same measure for `COC(=O)C(=O)C1(CCC(C)=O)c2ccccc2-c2c(C)ccc(C)c21` (centres undefined): over 100 µM.
As for `O=C(NCCO)Nc1ccc(-c2nc(N3CCOCC3)c3cccn3n2)cc1`, the GI50 was 0.693 µM and the TGI was determined as 35.3 µM.
`CC(C)c1cc(-c2n[nH]c(=O)n2-c2ccc3c(ccn3C)c2)c(O)cc1O`: the GI50 is 0.0238 µM and the TGI was 0.0661 µM.
Turning to `COc1ccc2nc(-c3cccs3)cc(C(O)CN3CCSCC3)c2c1` (centres undefined), the TGI was 34.4 µM.
On the same count and under the same terms, the result for `N#C/C(=C\c1ccc(O)c(O)c1)C(N)=S` reads over 100 µM.
Still for that read-out and setting: the same measure for `O=C(CN1CCOCC1)Nc1nc(-c2ccc(Cl)cc2)cs1`: 58.7 µM.
Turning to `COc1ccc(-c2nc3sc4c(c3c(=O)[nH]2)CCCCCC4)cc1`, the GI50 was 3.12 µM and the TGI was over 33.2 µM.
Regarding `O=C1CC(c2ccc(O)cc2)C2(O1)C(=O)OC(C(O)CO)C2O` (centres undefined), the TGI is over 100 µM.
Still for that read-out and setting: the same measure for `CC1=C(C)C(=O)c2c(cc3ccccn23)C1=O`: 19.1 µM.
Consider `OC(c1cc(-c2ccccc2)nc2ccc(Cl)cc12)C1CCCCN1` (centres undefined), for which the GI50 is 1.55 µM and the TGI was 2.91 µM.
Taken in the same sequence, the figures for `COc1ccc(OC)c(/C=C2\SC(=S)NC2=O)c1` were 26.6 µM and over 100 µM.
Turning to `CCN(CC)c1ccc(C(=O)c2ccccc2C(=O)O)c(O)c1`, the TGI is over 100 µM.
On to `CC(CCC(=O)O)[C@H]1CCC2[C@@H]3CC[C@@H]4CC(O)CC[C@]4(C)C3CC[C@@]21C` (some centres undefined), for which the GI50 is 29.5 µM and the TGI was over 100 µM.
For the molecule `Nc1ccn(CCNCCn2cnc3nc(N)[nH]c(=O)c32)c(=O)n1`, the TGI was over 100 µM.

The test system of a further assay is MALME-3M melanoma. The assay can be described thus: NCI anticancer screen, dose series, 48 h.
For the molecule `CCCC(C)c1cc(Cc2cc(Cl)cc(Cl)c2O)c(O)c(Cc2cc(Cl)cc(Cl)c2O)c1` (centres undefined), the GI50 was 1.77 µM and the TGI is 6.75 µM.
Turning to `C/C(=N\NS(=O)(=O)c1ccccc1)c1ccc(Cl)c(Cl)c1`, the TGI is over 100 µM.
In the case of `COc1ccc(-c2nn3c(-c4cc(F)c(Cl)cc4Cl)nnc3s2)cc1`, the GI50 is 26.8 µM and the TGI is over 100 µM.
`CCCNC1=C(C(=O)OCC)C(=O)CO1`: the TGI is over 100 µM.
Regarding `COC(=O)C(=O)C1(CCC(C)=O)c2ccccc2-c2c(C)ccc(C)c21` (centres undefined), the TGI was over 100 µM.
On the same count and under the same terms, the same measure for `O=C(NCCO)Nc1ccc(-c2nc(N3CCOCC3)c3cccn3n2)cc1`: 0.0506 µM.
For the molecule `CC(C)c1cc(-c2n[nH]c(=O)n2-c2ccc3c(ccn3C)c2)c(O)cc1O`, the GI50 was under 0.0167 µM and the TGI was under 0.031 µM.
Molecule `COc1ccc2nc(-c3cccs3)cc(C(O)CN3CCSCC3)c2c1` (centres undefined) gave a TGI of 35 µM.
Take `N#C/C(=C\c1ccc(O)c(O)c1)C(N)=S`: the TGI was over 100 µM.
The same measure, in the same setting: the result for `O=C(CN1CCOCC1)Nc1nc(-c2ccc(Cl)cc2)cs1` reads 65.2 µM.
With `COc1ccc(-c2nc3sc4c(c3c(=O)[nH]2)CCCCCC4)cc1`, the GI50 was 3.72 µM and the TGI was over 33.2 µM.
In turn, `O=C1CC(c2ccc(O)cc2)C2(O1)C(=O)OC(C(O)CO)C2O` (centres undefined) showed a TGI of over 100 µM.
Same read-out and setting: the result for `CC1=C(C)C(=O)c2c(cc3ccccn23)C1=O` reads 17 µM.
The same measure, in the same setting: the same measure for `CC1SC2=NC3=C(c4ccccc4C3=O)C(c3ccc(F)cc3)N2C1=O` (centres undefined): over 100 µM; for `CC1C=C(OC(=O)c2ccccc2)C(=O)C(n2cc(F)c(=O)[nH]c2=O)O1` (centres undefined): over 100 µM.
`COc1ccc(-c2ccc(/C=N/n3c(COc4ccc(Cl)cc4Cl)nn(CN4CCOCC4)c3=S)o2)c([N+](=O)[O-])c1`: the GI50 is 24.6 µM and the TGI was 52.7 µM.
The matching figures for `OC(c1cc(-c2ccccc2)nc2ccc(Cl)cc12)C1CCCCN1` (centres undefined): 1.99 µM and 3.88 µM.
Taken in the same sequence, the figures for `COc1ccc(OC)c(/C=C2\SC(=S)NC2=O)c1` were 34.6 µM and 92.8 µM.
Molecule `CCN(CC)c1ccc(C(=O)c2ccccc2C(=O)O)c(O)c1` came in with a TGI of over 100 µM.
For the molecule `CC(CCC(=O)O)[C@H]1CCC2[C@@H]3CC[C@@H]4CC(O)CC[C@]4(C)C3CC[C@@]21C` (some centres undefined), the GI50 is over 100 µM and the TGI is over 100 µM.

The values are drawn from PubChem BioAssay (NCI).
